# Columns and labels:
# enzyme R39 [1] = biological target: T1, enzyme R39 (Actinomadura sp. R39, UniProt P39045); experiment: Hydrolysis of thioester-type substrate by enzyme R39 and its activation by D-amino acids; assay type: biochemical; details: for activating effect on the thioester hydrolysis reaction by enzyme R39: thioester-type substrate of formula I; for activity of enzyme R39 on the substrate: one unit hydrolyzes 1 micromole of substrate per minute at 47° C.
# Description: In other words, in the presence of this activator, the rate of hydrolysis of the substrate by enzyme R39 is 40 times higher.
# [2] = biological target: T2, enzyme R39 (soluble D-alanyl-D-alanine carboxypeptidase produced by Actinomadura R39) (Actinomadura sp. R39, UniProt P39045); experiment: Enzymatic determination of penicillin G in milk with [(N-phenylacetyl-D-alanyl)thio]-acetic acid as substrate (Example 4); assay type: biochemical; details: Example 4, Table IV
# T2 construct: added to milk or serum samples
# T2 sequence (P39045 50-515): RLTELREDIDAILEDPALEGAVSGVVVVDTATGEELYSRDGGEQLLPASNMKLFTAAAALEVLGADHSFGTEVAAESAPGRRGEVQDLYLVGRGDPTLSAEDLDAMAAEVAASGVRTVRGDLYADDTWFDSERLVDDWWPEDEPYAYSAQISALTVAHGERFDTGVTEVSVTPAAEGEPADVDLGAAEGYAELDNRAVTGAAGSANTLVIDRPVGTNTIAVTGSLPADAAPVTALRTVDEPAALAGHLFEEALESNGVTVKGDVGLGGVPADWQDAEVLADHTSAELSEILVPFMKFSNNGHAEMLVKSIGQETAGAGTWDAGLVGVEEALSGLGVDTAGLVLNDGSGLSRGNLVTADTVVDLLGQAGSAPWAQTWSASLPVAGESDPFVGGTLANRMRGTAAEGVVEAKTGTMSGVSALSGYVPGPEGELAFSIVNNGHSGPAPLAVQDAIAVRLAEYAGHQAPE
# Description: The process is the same as in example 3, except that, after the first incubation, 120 μl of an aqueous solution containing 5 mg/ml of [(N-phenylacetyl-D-alanyl)thio]-acetic acid are added.
# [3] = biological target: T2, enzyme R39 (soluble D-alanyl-D-alanine carboxypeptidase produced by Actinomadura R39); experiment: Enzymatic determination of cephapirin in milk (Example 6); assay type: biochemical
# Description: The process is the same as in example 3, but the samples of 3 ml of milk contain known concentrations of cephapirin.
# [4] = tested on: cells or cell parts of Bacillus stearothermiphilus; details: enzyme-tagged antibiotic, visual colorimetric method; cited from earlier work
# enzyme R39 [5] = biological target: T1, enzyme R39; details: about 20 μl milk, 3 picomoles enzyme R39, cited from earlier work
# T1 sequence (P39045 50-515): as above
compound,measurement,setting,value
CC[C@@H](N)C(=O)O [D-2-aminobutyric acid],activating effect on the thioester hydrolysis reaction by enzyme R39,enzyme R39 [1],best activators
C[C@@H](N)C(=O)O [D-alanine],activating effect on the thioester hydrolysis reaction by enzyme R39,enzyme R39 [1],best activators
N=C(N)NCCC[C@@H](N)C(=O)O [D-arginine],activating effect on the thioester hydrolysis reaction by enzyme R39,enzyme R39 [1],best activators
N[C@H](Cc1c[nH]cn1)C(=O)O [D-histidine],activating effect on the thioester hydrolysis reaction by enzyme R39,enzyme R39 [1],best activators
CSCC[C@@H](N)C(=O)O [D-methionine],activating effect on the thioester hydrolysis reaction by enzyme R39,enzyme R39 [1],best activators
N[C@H](Cc1ccccc1)C(=O)O [D-phenylalanine],activating effect on the thioester hydrolysis reaction by enzyme R39,enzyme R39 [1],best activators
N[C@H](CO)C(=O)O [D-serine],activating effect on the thioester hydrolysis reaction by enzyme R39,enzyme R39 [1],best activators
N[C@H](Cc1c[nH]c2ccccc12)C(=O)O [D-tryptophan],activating effect on the thioester hydrolysis reaction by enzyme R39,enzyme R39 [1],best activators
CC(C)[C@@H](N)C(=O)O [D-valine],activating effect on the thioester hydrolysis reaction by enzyme R39,enzyme R39 [1],best activators
C[C@@H](NC(=O)c1ccccc1)C(=O)SCC(=O)O [[(N-benzoyl-D-alanyl)thio]-acetic acid],performance as substrate for enzyme R39,enzyme R39 [1]; among thioesters of formula I,best results
same,activity of enzyme R39 on the substrate,enzyme R39 [1]; in the absence of D-alanine,8 units per milligram of enzyme
same,activity of enzyme R39 on the substrate,enzyme R39 [1]; in the presence of D-alanine,320 units per milligram of enzyme
C[C@@H](NC(=O)Cc1ccccc1)C(=O)SCC(=O)O [[(N-phenylacetyl-D-alanyl)thio]-acetic acid],process carried out with this compound as substrate,[2],successfully
CC(=O)OCC1=C(C(=O)O)N2C(=O)[C@@H](NC(=O)CSc3ccncc3)[C@H]2SC1 [cephapirin],Coloration,[3]; cephapirin 0.002 μg/ml in 3 ml milk,medium yellow
same,Coloration,[3]; cephapirin 0.003 μg/ml in 3 ml milk,pale yellow
same,Coloration,[3]; cephapirin 0.004 μg/ml in 3 ml milk,white
same,Coloration,[3]; cephapirin 0.006 μg/ml in 3 ml milk,white
same,cephapirin concentration in milk detected visually,[3]; in 15 minutes time,0.004 µg/mL
NCC(=O)O [glycine],activating effect on the thioester hydrolysis reaction by enzyme R39,enzyme R39 [1],activating effect
penicillin,penicillin concentration threshold detected in milk,[4],0.05 IU/ml
same,penicillin concentration in milk quantitatively determined (spectrophotometer),enzyme R39 [5],0.02 I.U./ml
same,penicillin concentration in milk qualitatively determined by the visual method,enzyme R39 [5]; in less than one hour,more than 0.09 I.U./ml
